# Patent US9402827B2, “Treatment of gout” (ARDEA BIOSCIENCES, INC., priority 2010, dated 2016)
# Values joined by “and” are separate entries in the source; they are usually repeats but may differ in a detail not shown here. Equal values may be shown once.
# Experiments:
# TNF-α = experiment: In vitro THP-1 (human cell) assay, TNF-α; format: cell-based; settings: differentiated THP-1 cells, 6 hours, FIG. 3A
# Procedure: (§1) Uric acid (2 g, Sigma, Cat #U0881, Log S89329-419) was heated in a flask at 200° C. for 2 hours. Endotoxin free water (396 mL) followed by aqueous sodium hydroxide solution (2.375 mL of 5N or 1.19 mL 10N) were added and heated on a stir plate until the uric acid dissolved. […] The solution was stirred at room temperature for 24 hours and then centrifuged at 1000 g for 10 min. The supernatant was discarded and resuspended in PBS and centrifuged at 1000 g for 10 min; this step was repeated twice. The washed crystals were heated at 60° C. until dry and then autoclaved at 200° C. for 2 hours. The crystals were then weighed and resuspended in PBS at a concentration of 26 mg/ml.
# (§2) THP-1 cells were differentiated with 0.5 μM of phorbol myristate acetate (PMA) incubated for 3 hours. Cells were then spun down and washed once with HBSS. 1.25×10^6/mL cells were plated in white clear bottom white 96 well plate in 100 μL volume and incubated overnight. The next day the media was aspirated from the wells. 100 μL of 1× Optimem along with the compounds were added.
# IL-1β [1] = experiment: In vitro THP-1 (human cell) assay, IL-1β; format: cell-based; settings: differentiated THP-1 cells, 6 hours, FIG. 3B
# Procedure: as §1, §2
# IL-1β [2] = experiment: In vitro primary human monocyte assay, IL-1β; format: cell-based; settings: primary human monocytes, FIG. 4A
# Procedure: Blood (50-60 ml) was collected in Heparin vaccutainers (BD vaccutainer, Cat No-367874, Sodium Heparin, 10 ml tube; each holding ˜8-10 ml blood), which was immediately mixed to prevent coagulation. Accuspin-Histopaque 1077 (Sigma Aldrich cat no-A7054) was allowed to reach room temperature and diluted blood 1:1 in DPBS (Dulbecco's Phosphate-Buffered Saline (1×), liquid—Invitrogen, 14040-133), mixed by pipetting. The tubes were centrifuged (800 g; 30 seconds; room temp) to ensure all the Histopaque 1077 was below the high density polyethylene barrier.
# Diluted blood (50 ml) was added to the upper chamber of each ACCUSPIN tube and centrifuged at room temp for 10 minutes at 1000×g or 15 minutes at 800×g, (brakes were off for this step; acc=1, dcl=1). PBMCs were collected from the PBS/Ficoll interphase with a transfer pipette and transferred to a new 50 mL tube. […]
# Supernatant was decanted and 5 mL of RBC lysis solution added to the pellet and mixed well. […] The supernatant was discarded, resuspended in RPMI complete media, and the cells counted.
# The hPBM cells isolated in step A were counted, centrifuged (300 g; 10 min) and the supernatant aspirated. […]
# The centrifuged cells were then resuspended in 5 ml of MACS buffer and applied to the column. […] Cells were spun down (300 g, 5 min; supernatant discarded), resuspended in RPMI complete media and counted.
# [3] = system: monosodium urate (MSU) crystal injection-induced inflammation; experiment: In vivo MSU-induced inflammation, rat air pouch study (Example 3B); design: species or system Sprague-Dawley rats; settings: for Extravasation (optical absorbance at 620 nm), Av / Extravasation (optical absorbance at 620 nm), individual rats 1-10 / Exudate volume, Av / Exudate volume, individual rats 1-10 / Total white blood cell count, Av / Total white blood cell count, individual rats 1-10: 4 h after MSU
# Procedure: (Air Pouch studies) were unpacked, placed in cages, a health inspection performed and a number assigned. […] Under anesthesia, 30 mL sterile air was injected subcutaneously on day 0 and day 3. Vehicle (water) or Lesinurad were administered orally. On the day of the experiment, rats were dosed with Vehicle, Lesinurad p.o., and/or colchicine s.c. (Sigma, Cat.#C9754, Lot.#188K1131). […] The pouch was gently massaged and the exudate was immediately removed from the air pouch. The exudate volume was measured and recorded for each animal. […] The supernatants were stored at −20° C. for cytokine analysis. […] Plasma extravasation was measured by optical absorbance at 620 nm for each exudate sample.
# [4] = system: MSU-induced knee joint swelling; experiment: In vivo MSU-induced inflammation, rat knee joint study (Example 3C); design: species or system Sprague-Dawley rats
# Procedure: [table] Groups 1 and 2 were orally dosed with Vehicle (sterile water) once daily for seven days from Day 1. […] Groups 6 and 7 were orally dosed with Lesinurad once daily for seven days from Day 1; Group 7 also received colchicine administered subcutaneously on Day 7. […] The injection was performed from the anterior aspect of the knee joint, which was slightly extended and flexed. […] Four hours after MSU administration, the rats were anesthetized, the diameter of right knee joints were measured with calipers; surface temperature for right knees were measured. Synovial lavage fluid from the knee was collected by injecting phosphate buffered saline with 1% BSA (0.2 mL) into the joint cavity, the fluid then collected, centrifuged and the supernatants stored at −80° C.
smiles,measurement,setting,value
"O=C(O)CSc1nnc(Br)n1-c1ccc(C2CC2)c2ccccc12 [Lesinurad, 2-(5-bromo-4-(4-cyclopropylnaphthalen-1-yl)-4H-1,2,4-triazol-3-ylthio)acetic acid]",IC50,TNF-α,~52 µM
same,IC50,IL-1β [1],~30 µM
same,IC50,IL-1β [2]; Monocyte,~50 µM
same,IL-1β inhibition,"IL-1β [2]; 100 uM, 50 uM and 25 uM",dose dependent IL-1β inhibition
same,"Extravasation (optical absorbance at 620 nm), Av",[3]; Lesinurad 0.1 mg/kg p.o.,1.87
same,"Extravasation (optical absorbance at 620 nm), individual rats 1-10",[3]; Lesinurad 0.1 mg/kg p.o.,1.84 and 1.83 and 1.89 and 2.19 and 1.54 and 2.14 and 1.94 and 1.61 and 1.90 and 1.88
same,"Exudate volume, Av",[3]; Lesinurad 0.1 mg/kg p.o.,9.18 mL
same,"Exudate volume, individual rats 1-10",[3]; Lesinurad 0.1 mg/kg p.o.,8 mL (3×) and 9 mL and 11 mL and 10 mL and 9.6 mL and 9.2 mL and 7 mL and 12 mL
same,"Total white blood cell count, Av",[3]; Lesinurad 0.1 mg/kg p.o.,0.92 ×10^8
same,"Total white blood cell count, individual rats 1-10",[3]; Lesinurad 0.1 mg/kg p.o.,0.14 ×10^8 (2×) and 0.07 ×10^8 and 2.28 ×10^8 and 2.75 ×10^8 and 0.48 ×10^8 and 0.92 ×10^8 and 0.03 ×10^8 and 2.00 ×10^8 and 0.39 ×10^8
same,"Extravasation (optical absorbance at 620 nm), Av",[3]; Lesinurad 1 mg/kg p.o.,1.87
same,"Extravasation (optical absorbance at 620 nm), individual rats 1-10",[3]; Lesinurad 1 mg/kg p.o.,1.79 (2×) and 2.01 and 2.27 and 1.36 and 1.94 and 1.67 and 1.98 and 2.04 and 1.83
same,"Exudate volume, Av",[3]; Lesinurad 1 mg/kg p.o.,9.68 mL
same,"Exudate volume, individual rats 1-10",[3]; Lesinurad 1 mg/kg p.o.,9.6 mL and 7 mL (2×) and 13 mL and 5 mL and 10 mL and 12 mL and 14 mL and 7.8 mL and 11.4 mL
same,"Total white blood cell count, Av",[3]; Lesinurad 1 mg/kg p.o.,0.41 ×10^8
same,"Total white blood cell count, individual rats 1-10",[3]; Lesinurad 1 mg/kg p.o.,0.19 ×10^8 and 0.44 ×10^8 and 0.68 ×10^8 and 0.01 ×10^8 and 0.48 ×10^8 and 0.54 ×10^8 and 0.26 ×10^8 and 1.17 ×10^8 and 0.34 ×10^8 and 0.02 ×10^8
same,"Extravasation, in words",[3]; Lesinurad 10 mg/kg,reduced extravasation
same,"Extravasation (optical absorbance at 620 nm), Av",[3]; Lesinurad 10 mg/kg p.o.,1.03
same,"Extravasation (optical absorbance at 620 nm), individual rats 1-10",[3]; Lesinurad 10 mg/kg p.o.,1.20 and 0.93 and 0.89 and 0.77 and 0.71 and 0.97 and 0.82 (2×) and 1.94 and 1.25
same,"Exudate volume, Av",[3]; Lesinurad 10 mg/kg p.o.,8.29 mL
same,"Exudate volume, individual rats 1-10",[3]; Lesinurad 10 mg/kg p.o.,7 mL and 10 mL and 6 mL (2×) and 8 mL and 9 mL (2×) and 12 mL and 8.4 mL and 7.5 mL
same,"Total white blood cell count, Av",[3]; Lesinurad 10 mg/kg p.o.,0.57 ×10^8
same,"Total white blood cell count, individual rats 1-10",[3]; Lesinurad 10 mg/kg p.o.,0.60 ×10^8 and 0.15 ×10^8 and 0.08 ×10^8 and 0.16 ×10^8 and 0.55 ×10^8 and 1.01 ×10^8 and 1.02 ×10^8 and 0.95 ×10^8 and 0.29 ×10^8 and 0.90 ×10^8
same,"Exudate volume, in words",[3]; Lesinurad 10 mg/kg/day,significantly reduced exudate volume
same,"Number of white blood cells, in words","[3]; Lesinurad 0.1, 1 and 10 mg/kg/day",significantly lowered the number of white blood cells
same,"Exudate volume, in words",[3]; Lesinurad 0.1 and 1 mg/kg/day,did not significantly reduce exudate volume
same,IL-4 levels in the exudates,[3]; cytokines measured in air pouch exudates,significantly reduced IL-4 levels
same,Average increase in knee diameter,"[4]; Lesinurad 60 mg/kg p.o. once daily Day1-Day7, 4 h after MSU, p < 0.001 vs Vehicle",0.46 mm
same,"MSU-induced increase in knee diameter, in words",[4]; Lesinurad 60 mg/kg/day,significantly decreased the MSU-induced increase in knee diameter
